# Test results reported in US9890166B2, “Imidazopyrrolidine derivatives and their use in the treatment of disease” (NOVARTIS AG, priority 2013, dated 2018).
# Columns and labels:
# BRD4 (His-Brd4(44-477)) = BRD4 (His-Brd4(44-477)) (Homo sapiens (Human), UniProt O60885); test: TR-FRET in-vitro binding assay for BRD4; settings: single determination or n ≧ 2 independent determinations, read-out: Biochemical IC50 BRD4
# Method in brief: (§1)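 Compounds were serially diluted over eight concentrations and added to wells. TR-FRET signal was then measured.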
# BRD2 (His-Brd2(60-472)) = BRD2 (His-Brd2(60-472)) (Homo sapiens (Human), UniProt P25440); test: TR-FRET in-vitro binding assay for BRD2; settings: single determination or n ≧ 2 independent determinations, read-out: Biochemical IC50 BRD2
# Method in brief: as §1
# BRD3 (His-Brd3(20-477)) = BRD3 (His-Brd3(20-477)) (Homo sapiens (Human), UniProt Q15059); test: TR-FRET in-vitro binding assay for BRD3; settings: single determination or n ≧ 2 independent determinations, read-out: Biochemical IC50 BRD3
# Method in brief: as §1
# [1] = molecular target: CREBBP bromodomain (His-CREBBP(1081-1197)) (Homo sapiens (Human), UniProt Q92793); test: AlphaScreen in-vitro binding assay for CREBBP; settings: single determination or n ≧ 2 independent determinations, read-out: Biochemical IC50 CREBBP
# Method in brief: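 Reactions at 30 °C for 35 min, then Ni-chelate acceptor and streptavidin donor beads in HEPES pH 7.5, NaCl, Tween20, BSA, 60 min at room temperature. Eight-point compound series; IC50 by non-linear regression of percent inhibition.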
# THP-1 cells = test: Cell growth inhibition assay (CellTiter-Glo), THP-1; settings: for GI50: Homo sapiens, THP-1, read-out: THP-1 GI50; for THP-1 TGI: THP-1 cells, total growth inhibition, CellTiter-Glo;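 for all read-outs here: viability read as cellular ATP luminescence after 4 days, 3-fold dilution series from 10 µM, DMSO vehicle-treated cells taken as 100%, cell-free medium wells as −100%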
# K-562 cells = test: Cell growth inhibition assay (CellTiter-Glo), K-562; settings: for GI50: Homo sapiens, K562, read-out: K-562 GI50; for K-562 TGI: K-562 cells, total growth inhibition, CellTiter-Glo;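 for all read-outs here: cellular ATP measured by luminescence after 4 days of exposure, 3-fold dilution series from 10 µM, DMSO vehicle-treated cells define 100%, cell-free medium wells −100%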
# MV-4-11 cells = test: Cell growth inhibition assay (CellTiter-Glo), MV-4-11; settings: for GI50: Homo sapiens, MV4-11, read-out: MV-4-11 GI50; for MV-4-11 TGI: MV-4-11 cells, total growth inhibition, CellTiter-Glo;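 for all read-outs here: cellular ATP luminescence after 4 days, 3-fold dilution series from 10 µM top dose, vehicle (0.1% DMSO) set to 100%, cell-free medium set to −100%, day 0 corrected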
# Sequence of CREBBP bromodomain (His-CREBBP(1081-1197)) (Q92793 1081-1197): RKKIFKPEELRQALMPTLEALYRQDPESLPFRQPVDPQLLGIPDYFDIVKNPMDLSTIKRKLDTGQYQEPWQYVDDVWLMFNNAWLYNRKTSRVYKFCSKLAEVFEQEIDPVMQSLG
# Sequence of BRD3 (His-Brd3(20-477)) (Q15059 20-477): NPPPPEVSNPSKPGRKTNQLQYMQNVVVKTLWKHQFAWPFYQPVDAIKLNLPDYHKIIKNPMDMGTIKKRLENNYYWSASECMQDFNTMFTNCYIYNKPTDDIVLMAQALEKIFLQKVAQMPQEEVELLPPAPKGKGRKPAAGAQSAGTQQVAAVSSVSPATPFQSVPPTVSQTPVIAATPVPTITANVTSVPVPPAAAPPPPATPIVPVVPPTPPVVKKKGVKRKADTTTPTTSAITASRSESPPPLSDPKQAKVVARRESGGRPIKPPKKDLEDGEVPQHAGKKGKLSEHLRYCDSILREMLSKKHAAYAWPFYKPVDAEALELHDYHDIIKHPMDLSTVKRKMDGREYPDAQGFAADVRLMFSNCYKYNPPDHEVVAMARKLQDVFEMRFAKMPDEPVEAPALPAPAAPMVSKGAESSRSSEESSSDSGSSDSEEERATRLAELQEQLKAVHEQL
# Sequence of BRD2 (His-Brd2(60-472)) (P25440 60-472): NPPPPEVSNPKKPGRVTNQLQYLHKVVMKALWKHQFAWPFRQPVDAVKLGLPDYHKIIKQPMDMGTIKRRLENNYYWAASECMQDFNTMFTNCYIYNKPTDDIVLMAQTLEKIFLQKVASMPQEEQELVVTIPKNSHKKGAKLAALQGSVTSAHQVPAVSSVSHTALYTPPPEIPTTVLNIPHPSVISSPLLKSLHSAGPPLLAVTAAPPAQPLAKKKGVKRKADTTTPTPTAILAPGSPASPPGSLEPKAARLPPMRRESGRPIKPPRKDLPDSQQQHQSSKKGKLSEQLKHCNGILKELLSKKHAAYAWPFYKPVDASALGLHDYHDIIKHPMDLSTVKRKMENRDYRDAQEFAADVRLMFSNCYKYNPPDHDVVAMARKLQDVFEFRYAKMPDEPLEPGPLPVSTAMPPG
IC50 (BRD4 (His-Brd4(44-477))) [nM],IC50 (BRD2 (His-Brd2(60-472))) [nM],IC50 (BRD3 (His-Brd3(20-477))) [nM],IC50 [1] [nM],GI50 (THP-1 cells) [nM],GI50 (K-562 cells) [nM],GI50 (MV-4-11 cells) [nM],Structure (SMILES),THP-1 TGI (THP-1 cells) [nM],K-562 TGI (K-562 cells) [nM],MV-4-11 TGI (MV-4-11 cells) [nM]
23.5,47,21,> 37000,77,202,73.2,"COc1ccc(-c2nc3c([nH]2)C(c2ccc(Cl)cc2)N(c2cc(C)c4nnc(C(F)F)n4c2)C3=O)cn1 (stereo not shown) [Example 141, 6-(4-chlorophenyl)-5-(3-(difluoromethyl)-8-methyl-[1,2,4]triazolo[4,3-a]pyridin-6-yl)-2-(6-methoxypyridin-3-yl)-5,6-dihydropyrrolo[3,4-d]imidazol-4(1H)-one]",179,>10000,111.5
19,34,18,> 37000,11.3,44,9.19,"COc1ncc(-c2nc3c(n2C(C)C)C(c2ccc(Cl)cc2)N(c2cc(C)c4nnc(C(F)F)n4c2)C3=O)c(OC)n1 (stereo not shown) [Example 143, 6-(4-chlorophenyl)-5-(3-(difluoromethyl)-8-methyl-[1,2,4]triazolo[4,3-a]pyridin-6-yl)-2-(2,4-dimethoxypyrimidin-5-yl)-1-isopropyl-5,6-dihydropyrrolo[3,4-d]imidazol-4(1H)-one]",30.65,>10000,16.1
< 11,20,12,> 37000,11,46.9,9.57,"Cc1cc(N2C(=O)c3nc(C)n(C(C)C)c3[C@H]2c2ccc(Cl)cc2)cn2c(C(F)F)nnc12 [Example 146, (R)-6-(4-chlorophenyl)-5-(3-(difluoromethyl)-8-methyl-[1,2,4]triazolo[4,3-a]pyridin-6-yl)-1-isopropyl-2-methyl-5,6-dihydropyrrolo[3,4-d]imidazol-4(1H)-one]",29.75,>10000,15.05
16,22,21,> 37000,33.3,148,26.5,"COc1ccc(-c2nc3c(n2C(C)C)C(c2ccc(Cl)cc2)N(c2cc(C)c4nnc(C(F)F)n4n2)C3=O)cn1 (stereo not shown) [Example 149, 6-(4-chlorophenyl)-5-(3-(difluoromethyl)-8-methyl-[1,2,4]triazolo[4,3-b]pyridazin-6-yl)-1-isopropyl-2-(6-methoxypyridin-3-yl)-5,6-dihydropyrrolo[3,4-d]imidazol-4(1H)-one]",83.9,>10000,43.5
11,14,14,13900,6.85,24.1,3.73,"COc1ncccc1-c1nc2c(n1C(C)C)[C@@H](c1ccc(Cl)cc1)N(c1cc(C)c3nnc(C(F)F)n3c1)C2=O [Example 151, (R)-6-(4-chlorophenyl)-5-(3-(difluoromethyl)-8-methyl-[1,2,4]triazolo[4,3-a]pyridin-6-yl)-1-isopropyl-2-(2-methoxypyridin-3-yl)-5,6-dihydropyrrolo[3,4-d]imidazol-4(1H)-one]",17.45,>10000,8.015
13,25,23,28900,18.4,95,25.6,"COc1ncccc1-c1nc2c([nH]1)[C@@H](c1ccc(Cl)cc1)N(c1cc(C)c3nnc(C(F)F)n3c1)C2=O [Example 153, (R)-6-(4-chlorophenyl)-5-(3-(difluoromethyl)-8-methyl-[1,2,4]triazolo[4,3-a]pyridin-6-yl)-2-(2-methoxypyridin-3-yl)-5,6-dihydropyrrolo[3,4-d]imidazol-4(1H)-one]",44.3,>10000,38.6

# Second part, the compound before the results:
Structure (SMILES),IC50 (BRD4 (His-Brd4(44-477))) [nM],IC50 (BRD2 (His-Brd2(60-472))) [nM],IC50 (BRD3 (His-Brd3(20-477))) [nM],IC50 [1] [nM],GI50 (THP-1 cells) [nM],GI50 (K-562 cells) [nM],GI50 (MV-4-11 cells) [nM],THP-1 TGI (THP-1 cells) [nM],K-562 TGI (K-562 cells) [nM],MV-4-11 TGI (MV-4-11 cells) [nM]
"COc1cc(C(F)(F)F)ccc1-c1nc2c(n1C(C)C)C(c1ccc(Cl)cc1)N(c1cc(C)c3nnc(C(F)F)n3c1)C2=O (stereo not shown) [Example 144, 6-(4-chlorophenyl)-5-(3-(difluoromethyl)-8-methyl-[1,2,4]triazolo[4,3-a]pyridin-6-yl)-1-isopropyl-2-(2-methoxy-4-(trifluoromethyl)phenyl)-5,6-dihydropyrrolo[3,4-d]imidazol-4(1H)-one]",23,26,22,> 37000,46.2,116,30.8,92.95,>10000,46.9
"Cc1cc(N2C(=O)c3nc(C4CC4)n(C(C)C)c3C2c2ccc(Cl)cc2)cn2c(C(F)F)nnc12 (stereo not shown) [Example 145, 6-(4-chlorophenyl)-2-cyclopropyl-5-(3-(difluoromethyl)-8-methyl-[1,2,4]triazolo[4,3-a]pyridin-6-yl)-1-isopropyl-5,6-dihydropyrrolo[3,4-d]imidazol-4(1H)-one]",28,54,29,> 37000,22.2,70.2,14,47.6,>10000,26.95
"Cc1cc(N2C(=O)c3nc(C4=CCOCC4)n(C(C)C)c3C2c2ccc(Cl)cc2)cn2c(C(F)F)nnc12 (stereo not shown) [Example 147, 6-(4-chlorophenyl)-5-(3-(difluoromethyl)-8-methyl-[1,2,4]triazolo[4,3-a]pyridin-6-yl)-2-(3,6-dihydro-2H-pyran-4-yl)-1-isopropyl-5,6-dihydropyrrolo[3,4-d]imidazol-4(1H)-one]",13,60,44,34300,11.8,52,8.12,33.55,>10000,16.25
"COc1ncccc1-c1nc2c(n1C(C)C)C(c1ccc(Cl)cc1)N(c1cc(C)c3nnc(C(F)F)n3n1)C2=O (stereo not shown) [Example 148, 6-(4-chlorophenyl)-5-(3-(difluoromethyl)-8-methyl-[1,2,4]triazolo[4,3-b]pyridazin-6-yl)-1-isopropyl-2-(2-methoxypyridin-3-yl)-5,6-dihydropyrrolo[3,4-d]imidazol-4(1H)-one]",23,36,22,> 37000,9.99,69.5,6.47,24.95,>10000,13.1
"Cc1cc(N2C(=O)c3nc(C)n(C(C)C)c3C2c2ccc(Cl)cc2)nn2c(C(F)F)nnc12 (stereo not shown) [Example 150, 6-(4-chlorophenyl)-5-(3-(difluoromethyl)-8-methyl-[1,2,4]triazolo[4,3-b]pyridazin-6-yl)-1-isopropyl-2-methyl-5,6-dihydropyrrolo[3,4-d]imidazol-4(1H)-one]",38,94,39,> 37000,17.3,75.3,9.63,46.4,>10000,24.2
"COc1ccc(-c2nc3c(n2C(C)C)[C@@H](c2ccc(Cl)cc2)N(c2cc(C)c4nnn(C)c4n2)C3=O)cn1 [Example 154, (R)-6-(4-chlorophenyl)-5-(3,7-dimethyl-3H-[1,2,3]triazolo[4,5-b]pyridin-5-yl)-1-isopropyl-2-(6-methoxypyridin-3-yl)-5,6-dihydropyrrolo[3,4-d]imidazol-4(1H)-one]",19,42,19,> 37000,4.68,21.4,3.64,12.2,>10000,8.305
"COc1ncccc1-c1nc2c([nH]1)[C@@H](c1ccc(Cl)cc1)N(c1cc(C)c(=O)n(C)c1)C2=O [Example 156, (R)-6-(4-chlorophenyl)-5-(1,5-dimethyl-6-oxo-1,6-dihydropyridin-3-yl)-2-(2-methoxypyridin-3-yl)-5,6-dihydropyrrolo[3,4-d]imidazol-4(1H)-one]",25,32,29.5,260,43.4,122,25.4,99,>10000,51.35
